From PubChem BioAssay AID1963967 (Molecular Pharmacology Branch, DTP, NCI, 2024)
pIC50: −log10 of the molar value.

System: 855422-203-R-J1-PDC spheroids with HUVEC/MSC, viability
Test: Anticancer human tumor 855422-203-R-J1-PDC patient-derived bladder carcinoma cell line growth inhibition [PI3K]
Conditions: for viability, T/C: stronger effect = lower value
Procedure, shortened: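 We assembled tumor spheroids that included a stromal compartment of HUVEC and MSCs, then exposed them to targeted agents alone and together with PI3K pathway inhibitors. Concentration series descended by half-log from clinically achievable Cmax levels. Viability served as the endpoint.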

[1] = curve of first compound, second compound 0.0316 µM
[2] = curve of first compound, second compound 0.1 µM
[3] = curve of first compound, second compound 0.316 µM
[4] = curve of first compound, second compound 1 µM
[5] = second compound 0.0316 µM, first compound 0.0316 µM
[6] = second compound 0.0316 µM, first compound 0.1 µM
[7] = second compound 0.0316 µM, first compound 0.316 µM
[8] = second compound 0.0316 µM, first compound 1 µM
[9] = second compound 0.0316 µM, first compound 3.16 µM
[10] = second compound 0.0316 µM, first compound 10 µM
[11] = second compound 0.1 µM, first compound 0.0316 µM
[12] = second compound 0.1 µM, first compound 0.1 µM
[13] = second compound 0.1 µM, first compound 0.316 µM
[14] = second compound 0.1 µM, first compound 1 µM
[15] = second compound 0.1 µM, first compound 3.16 µM
[16] = second compound 0.1 µM, first compound 10 µM
[17] = second compound 0.316 µM, first compound 0.0316 µM
[18] = second compound 0.316 µM, first compound 0.1 µM
[19] = second compound 0.316 µM, first compound 0.316 µM
[20] = second compound 0.316 µM, first compound 1 µM
[21] = second compound 0.316 µM, first compound 3.16 µM
[22] = second compound 0.316 µM, first compound 10 µM
[23] = second compound 1 µM, first compound 0.0316 µM
[24] = second compound 1 µM, first compound 0.1 µM
[25] = second compound 1 µM, first compound 0.316 µM
[26] = second compound 1 µM, first compound 1 µM
[27] = second compound 1 µM, first compound 3.16 µM
[28] = second compound 1 µM, first compound 10 µM
[29] = curve of first compound, second compound 0.00316 µM
[30] = curve of first compound, second compound 0.01 µM
[31] = second compound 0.00316 µM, first compound 0.0316 µM
[32] = second compound 0.00316 µM, first compound 0.1 µM
[33] = second compound 0.01 µM, first compound 0.0316 µM
[34] = second compound 0.01 µM, first compound 0.1 µM
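Further: agents incubated with spheroids for one week before read-out.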
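Wherever viability, T/C is given: 100% = DMSO vehicle-treated control wells.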

`CC1(C)CCC(Nc2ncc(C(F)(F)F)c(-c3c[nH]c4c(P(C)(C)=O)c(C#N)ccc34)n2)CN1` (stereo not drawn) + CC(Nc1ncnc2nc[nH]c12)c1cc2cccc(Cl)c2c(=O)n1-c1ccccc1 showed a pIC50 [1] greater than 7.50, a pIC50 [2] greater than 7.50 and a pIC50 [3] greater than 7.50. The pIC50 [4] was greater than 7.50, the pIC50 (curve of first compound, second compound 3.16 µM) was greater than 7.50 and the pIC50 (curve of first compound, second compound 10 µM) was greater than 7.50. For the same compound, the viability, T/C [5] was 30.3%, the viability, T/C [6] was 24.1% and the viability, T/C [7] was 25%. The viability, T/C [8] was 26.8%, the viability, T/C [9] was 28.9% and the viability, T/C [10] was 3.47%. The viability, T/C [11] was 27.4%, the viability, T/C [12] was 25% and the viability, T/C [13] was 24.6%. The viability, T/C [14] was 27%, the viability, T/C [15] was 30.2% and the viability, T/C [16] was 5.41%. It also gave a viability, T/C [17] of 27.2%, a viability, T/C [18] of 24.9% and a viability, T/C [19] of 23.8%. It also gave a viability, T/C [20] of 27.5%, a viability, T/C [21] of 31.6% and a viability, T/C [22] of 4.23%. For the same compound, the viability, T/C [23] was 24.2%, the viability, T/C [24] was 28.2% and the viability, T/C [25] was 27.2%. For the same compound, the viability, T/C [26] was 26.7%, the viability, T/C [27] was 26% and the viability, T/C [28] was 5.15%. The viability, T/C (second compound 3.16 µM, first compound 0.0316 µM) was 23%, the viability, T/C (second compound 3.16 µM, first compound 0.1 µM) was 23.1% and the viability, T/C (second compound 3.16 µM, first compound 0.316 µM) was 24.6%. The viability, T/C (second compound 3.16 µM, first compound 1 µM) was 23.9%, the viability, T/C (second compound 3.16 µM, first compound 3.16 µM) was 26.6% and the viability, T/C (second compound 3.16 µM, first compound 10 µM) was 2.74%. It also gave a viability, T/C (second compound 10 µM, first compound 0.0316 µM) of 23.8%, a viability, T/C (second compound 10 µM, first compound 0.1 µM) of 21.4% and a viability, T/C (second compound 10 µM, first compound 0.316 µM) of 18.8%. It also gave a viability, T/C (second compound 10 µM, first compound 1 µM) of 23.7%, a viability, T/C (second compound 10 µM, first compound 3.16 µM) of 18.9% and a viability, T/C (second compound 10 µM, first compound 10 µM) of 1.26%.

For `CC1(C)CCC(Nc2ncc(C(F)(F)F)c(-c3c[nH]c4c(P(C)(C)=O)c(C#N)ccc34)n2)CN1` (stereo not drawn), the viability, T/C (compound 0.0316 µM) was 29.6% [middle of 4 runs], the viability, T/C (compound 0.1 µM) was 25% [middle of 4 runs] and the viability, T/C (compound 0.316 µM) was 27.7% [middle of 4 runs]. For the same compound, the viability, T/C (compound 1 µM) was 30.7% [middle of 4 runs], the viability, T/C (compound 3.16 µM) was 28.9% [middle of 4 runs] and the viability, T/C (compound 10 µM) was 5.48% [middle of 4 runs]. It also gave a pIC50 (curve of compound) greater than 7.50.

`CC(C)n1nc(-c2ccc3oc(N)nc3c2)c2c(N)ncnc21` + CC(Nc1ccc2c(c1)OCCn1cc(N3C(=O)OCC3C(F)F)nc1-2)C(N)=O gave a pIC50 [29] of 7.29, a pIC50 [30] of 7.36 and a pIC50 [1] of 7.42. It also gave a pIC50 [2] of 7.57, a pIC50 [3] of 8.22 and a pIC50 [4] greater than 9.50. The viability, T/C (second compound 0.00316 µM, first compound 0.000316 µM) was 113%, the viability, T/C (second compound 0.00316 µM, first compound 0.001 µM) was 90.1% and the viability, T/C (second compound 0.00316 µM, first compound 0.00316 µM) was 108%. The viability, T/C (second compound 0.00316 µM, first compound 0.01 µM) was 92.3%, the viability, T/C [31] was 74.2% and the viability, T/C [32] was 18.3%. The viability, T/C (second compound 0.01 µM, first compound 0.000316 µM) was 87.7%, the viability, T/C (second compound 0.01 µM, first compound 0.001 µM) was 92.9% and the viability, T/C (second compound 0.01 µM, first compound 0.00316 µM) was 98.7%. For the same compound, the viability, T/C (second compound 0.01 µM, first compound 0.01 µM) was 81.4%, the viability, T/C [33] was 63.1% and the viability, T/C [34] was 19%. For the same compound, the viability, T/C (second compound 0.0316 µM, first compound 0.000316 µM) was 91%, the viability, T/C (second compound 0.0316 µM, first compound 0.001 µM) was 84.4% and the viability, T/C (second compound 0.0316 µM, first compound 0.00316 µM) was 82%. For the same compound, the viability, T/C (second compound 0.0316 µM, first compound 0.01 µM) was 72%, the viability, T/C [5] was 59.6% and the viability, T/C [6] was 14.4%. For the same compound, the viability, T/C (second compound 0.1 µM, first compound 0.000316 µM) was 71.8%, the viability, T/C (second compound 0.1 µM, first compound 0.001 µM) was 72.7% and the viability, T/C (second compound 0.1 µM, first compound 0.00316 µM) was 78.7%. It also gave a viability, T/C (second compound 0.1 µM, first compound 0.01 µM) of 69.9%, a viability, T/C [11] of 46.6% and a viability, T/C [12] of 11.4%. For the same compound, the viability, T/C (second compound 0.316 µM, first compound 0.000316 µM) was 59.3%, the viability, T/C (second compound 0.316 µM, first compound 0.001 µM) was 55.9% and the viability, T/C (second compound 0.316 µM, first compound 0.00316 µM) was 58.7%. For the same compound, the viability, T/C (second compound 0.316 µM, first compound 0.01 µM) was 43.3%, the viability, T/C [17] was 32.7% and the viability, T/C [18] was 7.57%. It also gave a viability, T/C (second compound 1 µM, first compound 0.000316 µM) of 39.8%, a viability, T/C (second compound 1 µM, first compound 0.001 µM) of 38.4% and a viability, T/C (second compound 1 µM, first compound 0.00316 µM) of 36%. The viability, T/C (second compound 1 µM, first compound 0.01 µM) was 34%, the viability, T/C [23] was 24.1% and the viability, T/C [24] was 6.71%.

Work on `Cn1nccc1Nc1nccc(-c2ccn(C(CO)c3ccc(Cl)c(F)c3)c(=O)c2)n1` (stereo not drawn) + COc1c(OCCCN2CCOCC2)ccc2c3n(c(=NC(=O)c4cnc(N)nc4)nc12)CCN3 yielded a pIC50 [29] of 5.15, a pIC50 [30] of 5.30 and a pIC50 [1] of 5.98. It also gave a pIC50 [2] greater than 7.50, a pIC50 [3] greater than 7.50 and a pIC50 [4] greater than 7.50. The viability, T/C [31] was 94.4%, the viability, T/C [32] was 91.3% and the viability, T/C (second compound 0.00316 µM, first compound 0.316 µM) was 106%. For the same compound, the viability, T/C (second compound 0.00316 µM, first compound 1 µM) was 93.5%, the viability, T/C (second compound 0.00316 µM, first compound 3.16 µM) was 83.7% and the viability, T/C (second compound 0.00316 µM, first compound 10 µM) was 35.7%. It also gave a viability, T/C [33] of 88.8%, a viability, T/C [34] of 91.7% and a viability, T/C (second compound 0.01 µM, first compound 0.316 µM) of 83.3%. It also gave a viability, T/C (second compound 0.01 µM, first compound 1 µM) of 94.7%, a viability, T/C (second compound 0.01 µM, first compound 3.16 µM) of 67% and a viability, T/C (second compound 0.01 µM, first compound 10 µM) of 24.3%. For the same compound, the viability, T/C [5] was 61%, the viability, T/C [6] was 59.8% and the viability, T/C [7] was 53.6%. The viability, T/C [8] was 51.6%, the viability, T/C [9] was 38.1% and the viability, T/C [10] was 12.8%. The viability, T/C [11] was 25.1%, the viability, T/C [12] was 22.6% and the viability, T/C [13] was 22.3%. The viability, T/C [14] was 17.9%, the viability, T/C [15] was 10.5% and the viability, T/C [16] was 6.36%. For the same compound, the viability, T/C [17] was 7.7%, the viability, T/C [18] was 8.43% and the viability, T/C [19] was 5.39%. It also gave a viability, T/C [20] of 3.86%, a viability, T/C [21] of 3.44% and a viability, T/C [22] of 1.9%. For the same compound, the viability, T/C [23] was 2.72%, the viability, T/C [24] was 2.95% and the viability, T/C [25] was 1.79%. It also gave a viability, T/C [26] of 2.14%, a viability, T/C [27] of 0.55% and a viability, T/C [28] of 0.89%.
